From patent publication US20260049078A1, “DIFLUORO- AND TRIFLUORO-ACETYL HYDRAZIDES AS SELECTIVE HDAC6 INHIBITORS” (ITALFARMACO S.P.A., priority 2022, published 2026)

Experiments:
HDAC6 = assay: Kinetic of prodrug disappearing when incubated with HDAC6 (LC-HRMS); assay type: biochemical; conditions: HDAC6 1 μM, 5 μM compound, 25° C.; for half-life at 5 µM: HDAC6 enzyme in assay buffer, read-out: T1/2 of prodrug disappearing
Protocol: The LC-HRMS analysis was carried out using a Vanquish Flex UHPLC (Thermo Fisher Scientific) and a high-resolution mass spectrometer Orbitrap QExactive Focus (Thermo Fisher Scientific), equipped with a Heated Electrospray Ionization, operated in positive mode. A Full Scan analysis was set in the m/z range 50-500 amu. A XSelect HSS T3 50×2.1 mm, 2.5 μm chromatographic column (Waters) was used. Mobile phase A consisted of 0.1% formic acid in water and mobile phase B in 0.1% formic acid in acetonitrile. The flow rate was set to 0.5 mL/min, with a gradient program from 3 to 20% B in 3 minutes.

recombinant human HDAC6 = recombinant human HDAC6 (Homo sapiens (Human), UniProt Q9UBN7); assay: Enzyme inhibitory activity assay on HDAC6; assay type: biochemical; conditions: 30 minutes preincubation at 25° C.
Protocol: (§1) For each test compound, 100× concentrated DMSO solutions at 8 doses were prepared and then diluted in assay buffer (25 mM Tris-HCl, pH 8, 130 mM NaCl, 0.05% Tween-20, 10% Glycerol) to obtain 5× concentrated solutions in relation to the final concentrations (typical final concentration range—6.4-200000 nM or 0.18-50000 nM, final DMSO content—1%). Then 10 μL solution of each test compound concentration were placed on a 96-well plate in triplicate and 15 μL of 3.33× concentrated enzyme solution in the assay buffer containing 3.33× concentrated BSA (final BSA concentration 1 mg/mL) and, in case of HDAC6, 3.33× concentrated TCEP (final TCEP concentration—200 μM) were added to each well. After a period of preincubation at 25° C. (30 minutes for HDAC6 and 120 minutes for HDAC1), 25 μL of solution containing the substrate were added. As substrate, FLUOR DE LYS® deacetylase substrate (Enzo Life Sciences, cat: BML-KI104, FdL), FLUOR DE LYS®-Green substrate (Enzo Life Sciences, cat: BML-KI572, FdL_G) or Boc-Lys(Tfa)-AMC (Bachem, cat: 4060676.005, Tfal)—2× concentrated solution in assay buffer were used. Following a reaction period (30 minutes at 25° C.), 50 μL of the development solution consisting of concentrate FLUOR DE LYS® developer I (Enzo Life Sciences, ca: BML-KI105), diluted 200 times in buffer (50 mM Tris-HCl, pH 8, 137 mM NaCl, 2.7 mM KCl, 1 mM MgCl2) plus 2 μM TSA was added and, after 25 minutes at room temperature in the dark, using the Victor 1420 Multilabel Counter Perkin Elmer Wallac instrument, the fluorescence reading was carried out (excitation/emission: 485/535 nM—Fluor de Lys Green, 355/460 nM—Tfal, Fluor de Lys).
(§2) Enzymatic activity on recombinant human HDAC6 and HDAC1 was evaluated (Table 2) for each synthesized compound.

recombinant human HDAC1 = recombinant human HDAC1 (Homo sapiens (Human), UniProt Q13547); assay: Enzyme inhibitory activity assay on HDAC1; assay type: biochemical; conditions: 120 minutes preincubation at 25° C.
Protocol: as §1, §2

[1] = tested on: human B cell precursor leukemia 697; assay: In vitro α-tubulin acetylation in 697 cell line; assay type: cell-based; conditions: Homo sapiens, B-cell, 16 h; read-out: TubAc 697 cells EC50
Protocol: The in vitro α-tubulin acetylation was evaluated on human B cell precursor leukemia 697.
The 697 cells were maintained in RPMI Medium 1640 (Gibco, cat: 21875-034) supplemented with 10 mM HEPES (Gibco, cat: 15630-080), Pen-Strep (Penicillin 100 U/ml, Streptomycin 100 μg/ml, Gibco, cat: 15140-122) and 10% fetal bovine serum (Gibco, cat: 10270-106).
The cells were plated in 12-well plates (Costar, cat: 3512) at the density of 5.5×10^5 cells/ml.
Serial dilutions of test compounds in DMSO were prepared using 20 mM stock solutions to obtain 8 doses 200× concentrated in respect to final doses (2.7-100000 nM). Then the DMSO solutions were diluted 10× in culture medium to obtain 20× concentrated solutions which were used for cells treatment (125 μl of medium solutions were added to 2.375 ml of cells suspension). The final DMSO content was set as 0.5%. The plates were incubated at 37° C., 5% CO2 for 16 hours.
At the end of the incubation period, the cells were harvested and centrifuged for 5 minutes at 200×g and washed with 0.9% NaCl at 4° C. The resulting pellet was treated for 30 minutes at 4° C. with 100 μl Complete Lysis-M buffer containing protease inhibitors (Complete Lysis-M Roche+Complete Tablets, Mini Easypack, cat: 4719956001) and phosphatase inhibitor cocktails (PhosStop Easypack, Roche, cat: 4906837001) and then centrifuged 10 minutes at 18213×g. The protein concentration in each supernatant was determined using BCA Protein Assay Kit (Pierce, cat: 23227). The samples were diluted in PBS 1× to obtain 2 μg/ml concentration and coated in MaxiSorp 96-well plates (Nunc, cat: 442404). The plates were incubated overnight at room temperature.
Plates were washed twice with Wash Buffer (PBS 1×+0.005% tween 20) and saturated for 1 hour at room temperature with 300 μL of 1×PBS containing 10% FBS. After washing twice with Wash Buffer, the plates were incubated for 2 hours at room temperature in the presence of 100 μl/well either anti-acetylated-α-tubulin antibody (Monoclonal Anti-Tubulin, Acetylated antibody produced in mouse, Sigma-Aldrich, cat: T6793) or total anti-α-tubulin antibody (Monoclonal Anti-α-Tubulin produced in mouse, Sigma-Aldrich, cat: T6074) diluted 1:1000 in 1×PBS containing 10% FBS. Following 5 washing cycles with Wash Buffer the secondary antibody conjugated with the enzyme HRP (Goat anti-Mouse IgG, IgM, IgA (H+L), stock concentration 0.5 mg/ml, Thermo Fisher Scientific, cat: A10668), diluted 1:1000 in 1×PBS+10% FBS was added at the volume of 100 μl/well. After two hours of incubation at room temperature the plates were washed 4 times with Wash Buffer, then 100 μl/well of TMB substrate (TMB substrate kit, Thermo Fisher Scientific, cat: 34021) was added for 10 minutes at room temperature in the dark. The reaction was stopped by adding 50 μl of 2M H2SO4. The plates were read in BioTek Synergy H1 multimode microplate reader at a wavelength of 450 nm.
The measured absorbance was corrected by subtracting the mean of blank values (samples without the primary antibody). The absorbance ratios of acetyl to total tubulin assays were calculated and normalized to the reference compound (positive control) 4 parameter logistic curve, where 0% is the fitted bottom and 100% is the fitted top of the curve. The results are expressed as relative EC50.

Sequence of recombinant human HDAC1 (Q13547 whole entry): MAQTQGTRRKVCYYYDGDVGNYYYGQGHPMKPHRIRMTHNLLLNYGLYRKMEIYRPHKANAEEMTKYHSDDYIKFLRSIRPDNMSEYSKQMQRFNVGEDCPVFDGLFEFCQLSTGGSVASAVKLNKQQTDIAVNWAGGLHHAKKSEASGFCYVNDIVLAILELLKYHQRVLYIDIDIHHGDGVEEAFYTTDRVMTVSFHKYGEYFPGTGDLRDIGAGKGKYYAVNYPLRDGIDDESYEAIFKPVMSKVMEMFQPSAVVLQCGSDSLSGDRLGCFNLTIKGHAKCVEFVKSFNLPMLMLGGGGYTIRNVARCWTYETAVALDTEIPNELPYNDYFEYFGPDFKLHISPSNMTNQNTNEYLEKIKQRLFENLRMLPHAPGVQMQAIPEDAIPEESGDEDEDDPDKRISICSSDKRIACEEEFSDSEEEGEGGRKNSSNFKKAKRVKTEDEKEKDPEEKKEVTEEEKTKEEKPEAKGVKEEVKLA
Sequence of recombinant human HDAC6 (Q9UBN7 whole entry): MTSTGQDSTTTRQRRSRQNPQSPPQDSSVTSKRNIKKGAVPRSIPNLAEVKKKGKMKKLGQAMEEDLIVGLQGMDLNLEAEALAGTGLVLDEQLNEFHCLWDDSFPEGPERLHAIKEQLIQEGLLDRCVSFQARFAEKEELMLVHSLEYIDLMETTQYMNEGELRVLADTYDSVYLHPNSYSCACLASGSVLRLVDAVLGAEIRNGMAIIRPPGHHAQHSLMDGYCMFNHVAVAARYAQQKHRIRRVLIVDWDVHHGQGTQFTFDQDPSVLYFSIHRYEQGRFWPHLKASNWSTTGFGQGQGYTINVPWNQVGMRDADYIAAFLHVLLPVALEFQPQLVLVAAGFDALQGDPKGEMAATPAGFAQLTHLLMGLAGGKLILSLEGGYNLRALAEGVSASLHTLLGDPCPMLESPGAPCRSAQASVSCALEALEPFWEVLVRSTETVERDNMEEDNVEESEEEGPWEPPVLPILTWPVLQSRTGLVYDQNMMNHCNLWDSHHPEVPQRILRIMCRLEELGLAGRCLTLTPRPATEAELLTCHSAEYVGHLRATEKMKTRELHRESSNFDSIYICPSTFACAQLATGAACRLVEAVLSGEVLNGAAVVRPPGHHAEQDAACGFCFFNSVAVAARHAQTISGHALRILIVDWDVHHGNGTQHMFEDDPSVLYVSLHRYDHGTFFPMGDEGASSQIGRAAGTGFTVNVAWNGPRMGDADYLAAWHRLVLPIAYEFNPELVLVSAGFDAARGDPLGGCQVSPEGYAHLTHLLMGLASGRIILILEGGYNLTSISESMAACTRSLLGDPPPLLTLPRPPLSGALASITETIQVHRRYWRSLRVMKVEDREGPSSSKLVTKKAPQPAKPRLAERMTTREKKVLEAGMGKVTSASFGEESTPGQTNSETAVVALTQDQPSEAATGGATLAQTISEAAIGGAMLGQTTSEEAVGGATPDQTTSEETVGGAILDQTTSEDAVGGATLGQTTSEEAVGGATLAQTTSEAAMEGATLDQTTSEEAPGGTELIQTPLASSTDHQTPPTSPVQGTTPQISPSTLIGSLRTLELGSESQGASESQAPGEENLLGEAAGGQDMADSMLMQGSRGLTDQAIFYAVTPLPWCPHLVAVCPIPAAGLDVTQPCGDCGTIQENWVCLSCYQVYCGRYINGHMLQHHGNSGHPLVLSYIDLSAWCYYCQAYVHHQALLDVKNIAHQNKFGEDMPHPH

Compound	half-life at 5 µM (HDAC6) [min]	IC50 (recombinant human HDAC6) [nM]	IC50 (recombinant human HDAC1) [nM]	EC50 [1] [nM]	other results
Nc1ccc(-c2cn(Cc3ccc(-c4nnc(C(F)(F)F)o4)c(F)c3)nn2)cn1 [Compound 44-A]	11.3				
FC(F)c1nnc(-c2ccc(Cn3cc(-c4ccc5[nH]ccc5c4)nn3)nc2)o1 [Compound 27-A]		15	> 100000	119	
Fc1cccc(-c2cn(Cc3ccc(-c4nnc(C(F)F)o4)cn3)nn2)c1 [Compound 18-A]		56	> 100000	582	
Nc1ccc(-c2cn(Cc3c(F)cc(-c4nnc(C(F)F)o4)cc3F)nn2)cn1 [Compound 46-A]	22.9		> 100000	788	percentage of compound concentration (prodrug remaining) (HDAC6; time 0 min): 100.00%; percentage of compound concentration (prodrug remaining) (HDAC6; time 30 min): 42.4%; percentage of compound concentration (prodrug remaining) (HDAC6; time 60 min): 17.4%; percentage of compound concentration (prodrug remaining) (HDAC6; time 120 min): 2.7%; percentage of compound concentration (prodrug remaining) (HDAC6; time 240 min): 0.0%; percentage of compound concentration (prodrug remaining) (HDAC6; time 360 min): 0.0%; percentage of compound concentration (prodrug remaining) (HDAC6; time 480 min): 0.0%
Fc1cc(-c2nnc(C(F)F)o2)cnc1Cn1cc(-c2ccccn2)nn1 [Compound 15-A]		100	> 100000		
Fc1cc(-c2nnc(C(F)F)o2)ccc1Cn1cc(-c2cccc3[nH]ccc23)nn1 [Compound 36-A]		54	> 100000	167	
Cc1cccc(-c2cn(Cc3ccc(-c4nnc(C(F)F)o4)cn3)nn2)c1 [Compound 9-A]		40	> 100000	385	
FC(F)c1nnc(-c2ccc(Cn3nnc(-c4cccs4)n3)nc2)o1 [Compound 17-A]		41	> 100000	648	
Nc1ccc(-c2cn(Cc3ccc(-c4nnc(C(F)F)o4)cc3)nn2)cn1 [Compound 45-A]	113	26	> 100000	664	percentage of compound concentration (prodrug remaining) (HDAC6; time 0 min): 100.00%; percentage of compound concentration (prodrug remaining) (HDAC6; time 30 min): 79.9%; percentage of compound concentration (prodrug remaining) (HDAC6; time 60 min): 73.7%; percentage of compound concentration (prodrug remaining) (HDAC6; time 120 min): 47.8%; percentage of compound concentration (prodrug remaining) (HDAC6; time 240 min): 22.6%; percentage of compound concentration (prodrug remaining) (HDAC6; time 360 min): 11.6%; percentage of compound concentration (prodrug remaining) (HDAC6; time 480 min): 5.2%
FC(F)c1nnc(-c2ccc(Cn3cc(-c4cccc5[nH]ncc45)nn3)nc2)o1 [Compound 34-A]		20	> 100000	167	
Cc1ccc(-c2cn(Cc3ccc(-c4nnc(C(F)F)o4)cn3)nn2)cc1 [Compound 8-A]		65	> 100000	419	
Nc1ccc(-c2cn(Cc3ccc(-c4nnc(C(F)(F)F)o4)cc3F)nn2)cn1 [Compound 43-A]	23.1				
CC(c1ccc(-c2nnc(C(F)F)o2)cc1F)n1cc(-c2ccc3nc(N)sc3c2)nn1 (stereo not drawn) [Compound 30-A, 6-(1-(1-(4-(5-(difluoromethyl)-1,3,4-oxadiazol-2-yl)-2-fluorophenyl)ethyl)-1H-1,2,3-triazol-4-yl)benzo[d]thiazol-2-amine]				1390	
Nc1ccc(-c2cn(Cc3ccc(-c4nnc(C(F)F)o4)cc3F)nn2)cn1 [Compound 47-A]	29.3		> 100000	871	percentage of compound concentration (prodrug remaining) (HDAC6; time 0 min): 100.00%; percentage of compound concentration (prodrug remaining) (HDAC6; time 30 min): 53.6%; percentage of compound concentration (prodrug remaining) (HDAC6; time 60 min): 29.7%; percentage of compound concentration (prodrug remaining) (HDAC6; time 120 min): 7.4%; percentage of compound concentration (prodrug remaining) (HDAC6; time 240 min): 0.4%; percentage of compound concentration (prodrug remaining) (HDAC6; time 360 min): 0.0%; percentage of compound concentration (prodrug remaining) (HDAC6; time 480 min): 0.0%
FC(F)c1nnc(-c2ccc(Cn3cc(-c4cccs4)nn3)nc2)o1 [Compound 19-A]		31	> 100000	579	
Nc1ccc(-c2cn(Cc3c(F)cc(-c4nnc(C(F)(F)F)o4)cc3F)nn2)cn1 [Compound 42-A]	40.5				
CC(=O)Nc1cccc(-c2cn(Cc3ccc(-c4nnc(C(F)F)o4)cc3F)nn2)c1 [Compound 12-A]		57	> 100000	346	
FC(F)c1nnc(-c2ccc(Cn3nnc(-c4ccccc4)n3)nc2)o1 [Compound 16-A]		40	> 100000	1090	
Nc1ccc(-c2cn(Cc3ccc(-c4nnc(C(F)F)o4)s3)nn2)cn1 [Compound 49-A]				29	
Fc1cc(-c2nnc(C(F)F)o2)cnc1Cn1cc(-c2cccc3[nH]ccc23)nn1 [Compound 40-A]		44	> 100000	849	
Nc1nc2ccc(-c3cn(Cc4ccc(-c5nnc(C(F)F)o5)c(Cl)c4)nn3)cc2s1 [Compound 31-A]	129				
